Experimental data published in patent US20100202971A1, “COMPOUND HAVING TUMOR-RESIDENT PROPERTY” (priority 2009, published 2010).

Test system: Human giant cell lung carcinoma cells Lu65
Experiment: Biological distribution of biotinated αSQAP in tumor of tumor-bearing nude mice (Alexa 488 avidin staining of tumor slices)
Type: in vivo, KSN nude mice
Settings: tail vein, one hour after administration, FIG. 2
Procedure: Human giant cell lung carcinoma cells Lu65 were transplanted into six-week-old male KSN nude mice in a number of 1×10^6 for each of the mice, and the mice were bred for 14 days to form a tumor mass of about 100-200 mm^3 volume in each of the mice.
Thereafter, three mice were assigned to each of the following four groups (1) to (4):
(1) a control group wherein physiological saline was administered,
(2) a high dose group wherein biotinated αSQAP was administered in a dose of 50 mg/kg,
(3) a middle dose group wherein biotinated αSQAP was administered in a dose of 5 mg/kg, and […]
The slice was observed by a fluorescence microscope, and the slice was made into an image. Data on the image were input to a computer, and then positive signals of the image were quantified according to image analysis software.
Specifically, binary image processing based on Photoshop was performed to estimate a tumor region emitting fluorescence through the labeling material Alexa 488 in the slice. Thereafter, a portion (fraction) containing tumor tissues was selected from the visual field, and the number of pixels of the Alexa 488 positive region (black region) and the entire region were counted and the ratio of the positive region was calculated according to the formula: […]

For `O=C(CCCC[C@@H]1SC[C@@H]2NC(=O)N[C@@H]21)NCCC(=O)OCCCO[C@H]1O[C@H](CS(=O)(=O)[O-])[C@@H](O)[C@H](O)[C@H]1O.O=C(CCCC[C@@H]1SC[C@@H]2NC(=O)N[C@@H]21)NCCC(=O)OCCCO[C@H]1O[C@H](CS(=O)(=O)[O-])[C@@H](O)[C@H](O)[C@H]1O.[Ca+2]` [biotinated αSQAP, 3-O-(6-sulfo-α-D-quinovopyranosyl)-1-O-(biotinyl-β-alanyl)-propane-1,3-diol calcium salt], the amount in tumor (50 mg/kg) was “large” and the “staining of tumor tissues (Alexa 488 positive region)” value (high dose group 50 mg/kg) was “intensely dyed”.
